One block for each compound: values may come before it.
Tests used:
[1] = target: T1, MMP-2 (Homo sapiens, UniProt P08253); assay: MMP-2 inhibition assay (fluorogenic peptide substrate); format: biochemical
T1 construct: purchased Sino Biological 10082-HNAH
T1 sequence (P08253 110-660): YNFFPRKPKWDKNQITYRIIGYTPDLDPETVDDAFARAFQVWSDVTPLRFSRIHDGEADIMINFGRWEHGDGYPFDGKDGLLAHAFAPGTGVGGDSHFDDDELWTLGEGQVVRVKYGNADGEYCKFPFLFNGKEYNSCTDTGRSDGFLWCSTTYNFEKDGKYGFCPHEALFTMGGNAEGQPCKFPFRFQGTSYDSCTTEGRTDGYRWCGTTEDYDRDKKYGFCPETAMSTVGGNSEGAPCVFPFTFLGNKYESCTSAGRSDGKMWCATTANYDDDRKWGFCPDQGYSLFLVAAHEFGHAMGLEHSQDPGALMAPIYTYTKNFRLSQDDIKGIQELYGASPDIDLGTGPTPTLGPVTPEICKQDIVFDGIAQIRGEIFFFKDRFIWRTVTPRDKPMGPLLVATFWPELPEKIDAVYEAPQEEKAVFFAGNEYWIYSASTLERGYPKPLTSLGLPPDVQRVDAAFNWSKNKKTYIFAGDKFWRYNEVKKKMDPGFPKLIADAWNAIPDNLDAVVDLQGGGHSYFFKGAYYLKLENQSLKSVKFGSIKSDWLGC
In short: (§1)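 Human proMMP-2 and proMMP-9 were activated with 1 mM APMA (37 °C, 2 h), then used at 6.5 nM (MMP-2) or 10 nM (MMP-9) in Tris/NaCl/CaCl2/Brij 35 buffer, pH 7.5. Enzyme was preincubated with compound 30 min at RT; 25 μM DNP-Pro-Leu-Gly-Met-Trp-Ser-Arg substrate was added and fluorescence (ex 280/em 360 nm) followed 30 min. IC50 from logistic fits of Vmax.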

[2] = target: T2, MMP-9 (Homo sapiens, UniProt P14780); assay: MMP-9 inhibition assay (fluorogenic peptide substrate); format: biochemical; set-up: remaining enzyme activity (% of control): scale not given here
T2 construct: purchased Sino Biological 10327-HNAH
In short: as §1

[3] = mean ± SE; n.d: not detected; Fig. 5d unit inferred, µM; read-out: IC50
[4] = mean ± SE; n.d: not detected; Fig. 5e prints no unit, µM; read-out: IC50

T2 sequence (P14780 107-707 limits assumed): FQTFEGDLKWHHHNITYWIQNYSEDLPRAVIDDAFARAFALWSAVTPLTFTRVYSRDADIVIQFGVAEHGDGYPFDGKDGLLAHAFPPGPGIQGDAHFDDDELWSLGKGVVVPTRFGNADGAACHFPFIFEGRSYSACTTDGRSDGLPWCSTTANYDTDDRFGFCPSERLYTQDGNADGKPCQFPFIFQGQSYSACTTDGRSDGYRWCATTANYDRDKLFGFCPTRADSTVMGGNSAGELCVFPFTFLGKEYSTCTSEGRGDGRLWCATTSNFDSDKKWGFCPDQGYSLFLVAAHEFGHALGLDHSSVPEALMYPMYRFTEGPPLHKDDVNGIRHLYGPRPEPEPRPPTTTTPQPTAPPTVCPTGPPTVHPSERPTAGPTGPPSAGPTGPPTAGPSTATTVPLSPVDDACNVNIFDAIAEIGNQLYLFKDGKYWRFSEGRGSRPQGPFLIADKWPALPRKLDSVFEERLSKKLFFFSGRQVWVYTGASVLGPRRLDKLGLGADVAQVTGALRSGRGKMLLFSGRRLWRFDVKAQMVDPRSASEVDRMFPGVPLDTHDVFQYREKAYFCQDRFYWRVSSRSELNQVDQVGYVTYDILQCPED

remaining activity (%) ([1]; MMP-2; concentration 0.0153 µM): 92.49
remaining activity (%) ([1]; MMP-2; concentration 0.08 µM): 86.73
remaining activity (%) ([1]; MMP-2; concentration 0.38 µM): 90.73
remaining activity (%) ([1]; MMP-2; concentration 1.91 µM): 83.36
remaining activity (%) ([1]; MMP-2; concentration 9.54 µM): 76.57
remaining activity (%) ([1]; MMP-2; concentration 47.72 µM): 66.74
remaining activity (%) ([1]; MMP-2; concentration 238.60 µM): 28.54
remaining activity (%) ([1]; MMP-2; concentration 1193.00 µM): 3.05
IC50 [1, 3]: 110 ± 13.3 µM
remaining enzyme activity (% of control) ([2]; MMP-9; concentration 0.08 µM): 98.15
remaining enzyme activity (% of control) ([2]; MMP-9; concentration 0.38 µM): 101.08
remaining enzyme activity (% of control) ([2]; MMP-9; concentration 1.91 µM): 93.24
remaining enzyme activity (% of control) ([2]; MMP-9; concentration 9.54 µM): 99.31
remaining enzyme activity (% of control) ([2]; MMP-9; concentration 47.72 µM): 78.04
remaining enzyme activity (% of control) ([2]; MMP-9; concentration 238.60 µM): 51.23
remaining enzyme activity (% of control) ([2]; MMP-9; concentration 1193.00 µM): 4.04
IC50 [2, 4]: 232 ± 35.2 µM
Structure (SMILES): Cc1cc(=O)[nH]c(-n2nc(C)c(CCC(=O)NCCNC(=O)c3cncc(O)c3)c2C)n1 [693+828 Linker 1]

remaining activity (%) ([1]; MMP-2, concentration 0.12 µM): 94.84
remaining activity (%) ([1]; MMP-2, concentration 0.49 µM): 90.90
remaining activity (%) ([1]; MMP-2, concentration 1.95 µM): 93.31
remaining activity (%) ([1]; MMP-2, concentration 7.81 µM): 101.10
remaining activity (%) ([1]; MMP-2, concentration 31.25 µM): 86.65
remaining activity (%) ([1]; MMP-2, concentration 125.00 µM): 86.38
remaining activity (%) ([1]; MMP-2, concentration 500.00 µM): 61.56
remaining enzyme activity (% of control) ([2]; MMP-9, concentration 0.12 µM): 83.90
remaining enzyme activity (% of control) ([2]; MMP-9, concentration 0.49 µM): 96.21
remaining enzyme activity (% of control) ([2]; MMP-9, concentration 1.95 µM): 89.70
remaining enzyme activity (% of control) ([2]; MMP-9, concentration 7.81 µM): 92.69
remaining enzyme activity (% of control) ([2]; MMP-9, concentration 31.25 µM): 77.21
remaining enzyme activity (% of control) ([2]; MMP-9, concentration 125.00 µM): 71.00
remaining enzyme activity (% of control) ([2]; MMP-9, concentration 500.00 µM): 60.44
Structure (SMILES): Cn1c(O)nc2cc(C(=O)NCCNC(=O)Cn3cnc4c(oc5ccccc54)c3=O)cnc21 [182+826 Linker 1]

remaining activity (%) ([1]; MMP-2; concentration 0.12 µM): 90.87
remaining activity (%) ([1]; MMP-2; concentration 0.49 µM): 97.75
remaining activity (%) ([1]; MMP-2; concentration 1.95 µM): 98.21
remaining activity (%) ([1]; MMP-2; concentration 7.81 µM): 97.67
remaining activity (%) ([1]; MMP-2; concentration 31.25 µM): 98.57
remaining activity (%) ([1]; MMP-2; concentration 125.00 µM): 99.42
remaining activity (%) ([1]; MMP-2; concentration 500.00 µM): 77.03
remaining enzyme activity (% of control) ([2]; MMP-9; concentration 0.12 µM): 93.59
remaining enzyme activity (% of control) ([2]; MMP-9; concentration 0.49 µM): 93.14
remaining enzyme activity (% of control) ([2]; MMP-9; concentration 1.95 µM): 89.16
remaining enzyme activity (% of control) ([2]; MMP-9; concentration 7.81 µM): 98.12
remaining enzyme activity (% of control) ([2]; MMP-9; concentration 31.25 µM): 95.00
remaining enzyme activity (% of control) ([2]; MMP-9; concentration 125.00 µM): 90.00
remaining enzyme activity (% of control) ([2]; MMP-9; concentration 500.00 µM): 85.00
Structure (SMILES): Cn1c(O)nc2cc(C(=O)NCCCCCCCCNC(=O)CNC(=O)NC34CC5CC(CC(C5)C3)C4)cnc21 [66+826 Linker 4]

remaining activity (%) ([1]; MMP-2; concentration 0.0156 µM): 99.10
remaining activity (%) ([1]; MMP-2; concentration 0.08 µM): 102.47
remaining activity (%) ([1]; MMP-2; concentration 0.39 µM): 95.82
remaining activity (%) ([1]; MMP-2; concentration 1.95 µM): 94.73
remaining activity (%) ([1]; MMP-2; concentration 9.75 µM): 93.23
remaining activity (%) ([1]; MMP-2; concentration 48.76 µM): 86.38
remaining activity (%) ([1]; MMP-2; concentration 243.80 µM): 70.35
remaining activity (%) ([1]; MMP-2; concentration 1219.00 µM): 22.32
IC50 [1, 3]: 488 ± 45.3 µM
remaining enzyme activity (% of control) ([2]; MMP-9; concentration 0.08 µM): 103.52
remaining enzyme activity (% of control) ([2]; MMP-9; concentration 0.39 µM): 103.70
remaining enzyme activity (% of control) ([2]; MMP-9; concentration 1.95 µM): 101.49
remaining enzyme activity (% of control) ([2]; MMP-9; concentration 9.75 µM): 97.37
remaining enzyme activity (% of control) ([2]; MMP-9; concentration 48.76 µM): 61.33
remaining enzyme activity (% of control) ([2]; MMP-9; concentration 243.80 µM): 18.36
remaining enzyme activity (% of control) ([2]; MMP-9; concentration 1219.00 µM): 3.09
IC50 [2, 4]: 77.4 ± 13.9 µM
Structure (SMILES): O=C(C=CCCCCNC(=O)c1cncc(O)c1)CC(=O)NCC12CC3CC(CC(C3)C1)C2 [66+828 Linker 12]

— PMC10023787, “Trio-pharmacophore DNA-encoded chemical library for simultaneous selection of fragments and linkers” (Nature Communications, 2023)
